The subject of one data set is NADPH oxidase. Put plainly: Inhibitory activity on ROS production derived from NADPH oxidase (HUVECs, nitrotetrazolium blue). In kind it is cell-based, Human. Conditions: 1.0 μM test compound, 25 mM glucose, 200 μM NADPH, 2 hours. On the procedure:
Test 1: Inhibitory Activity on ROS Production Derived from NADPH Oxidase
This activity was measured by using Human Umbilical Vein Endothelial Cells (HUVECs). The test method is as follows.
3×10^4 cells/well (100 μL) of HUVECs were seeded into a 96-well plate coated with collagen. The culture medium was MCDB131 medium containing 10% fetal bovine serum, 2 mM glutamine, 100 U/mL penicillin, 100 U/mL streptomycin, and 10 ng/mL recombinant human basic-FGF. On the next day, the culture medium was removed by an aspirator, and 100 μL/well of phosphate buffered saline containing 25 mM glucose, 200 μM NADPH, 0.2% nitrotetrazolium blue, and test compounds followed by culturing at 37° C. Nitrotetrazolium blue reacts with intracellularly produced ROS and turns into a water-insoluble blue pigment. After 2 hours, the supernatant was discarded, and the wells were washed three times with phosphate buffered physiological saline. Then, 100 μL/well of 90% DMSO water containing 0.04M sodium hydroxide was added to each well to completely dissolve the pigment, and an absorbance at a wavelength of 715 nm was measured. By taking an absorbance with no addition of a test compound as A, an absorbance […], and an absorbance with addition of glucose, NADPH and a test compound as C, ROS production inhibitory rate was calculated according to the following equation. Inhibition rate (%)=[…]
Abbreviation “Ex” in the table represents Example Compound No. which will follow, and abbreviation “Inh” represents an ROS production inhibition rate. It was confirmed that the compounds of the formula (I) of the present invention have an excellent ROS production inhibitory activity.

In general, melting point refers to the temperature, or range, at which the solid turns liquid.

Compound `Cc1c(CCCCCOc2ccc(F)cc2F)[nH]c2ccc(F)cc2c1=O` [Ex 28] gave a melting point of 201 to 203 °C.

Regarding `Cc1c(COCCCCOc2ccc(C#N)cc2)[nH]c2ccccc2c1=O` [Ex 49], in the data set with NADPH oxidase, the “Inh(%) ROS production inhibition rate” value was 90.8 ± 5.2%.

For the compound `COCCc1ccc(OCCCCOCc2[nH]c3ccccc3c(=O)c2C)cc1` [Ex 50], the “Inh(%) ROS production inhibition rate” value in the data set on NADPH oxidase came to 80.5 ± 2.5%.

`Cc1c(COCCCCOc2cccc3c2OC(C)(C)C3)[nH]c2ccccc2c1=O` [Ex 52] had a melting point of 139 to 140 °C.

Compound `Cc1c(COCCCCOCCC2CC2)[nH]c2ccccc2c1=O` [Ex 53] registered a melting point of 155 to 157 °C.

For the compound `COC(C)(C)CCOCCCCOCc1[nH]c2ccccc2c(=O)c1C` [Ex 55], the “Inh(%) ROS production inhibition rate” value in the data set with NADPH oxidase was found to be 57.3 ± 2.3%.

`CC(=O)N1CCC(COc2cccc(OCc3[nH]c4ccccc4c(=O)c3C)c2)CC1` [Ex 98]: the “Inh(%) ROS production inhibition rate” value in the data set with NADPH oxidase is 101.5 ± 1.9%.

On to `Cc1c(COc2cccc(OCCc3ccncc3)c2)[nH]c2ccccc2c1=O` [Ex 127], for which, in the data set with NADPH oxidase, the “Inh(%) ROS production inhibition rate” value came to 85.3 ± 2.9%.

Take `CCCCCC(=O)N1CCC(OCc2[nH]c3ccc(F)cc3c(=O)c2C)CC1` [Ex 128]: the “Inh(%) ROS production inhibition rate” value in the data set with NADPH oxidase is given as 77.7 ± 3.9%.

In the case of `Cc1c(COc2cccc(OCC3CCOCC3)n2)[nH]c2ccccc2c1=O` [Ex 143], the melting point lay within 221 to 223 °C.

As to `Cc1c(COc2ccc3c(c2)N(C(=O)CC2CCOCC2)CCC3)[nH]c2ccc(F)cc2c1=O` [Ex 166], the “Inh(%) ROS production inhibition rate” value with NADPH oxidase is 84.3 ± 2.4%.

The compound `Cc1c(COc2cc(OCCC3(O)CCOCC3)ccn2)[nH]c2ccccc2c1=O` [Ex 179] displayed a melting point of 189 to 190 °C.

Consider `Cc1c(CN2CCc3cc(OCC4CCOCC4)ccc3C2)[nH]c2ccccc2c1=O` [Ex 180], for which the “Inh(%) ROS production inhibition rate” value with NADPH oxidase was 69.5 ± 1.3%.

`CCCCCC(=O)N1CCN(Cc2[nH]c3ccccc3c(=O)c2C)CC1` [Ex 181] gave a melting point of 171 to 173 °C.

For `Cc1c(CCc2cc(OCC3CCOCC3)ccn2)[nH]c2ccccc2c1=O` [Ex 184], the melting point was in the range of 212 to 215 °C.

Compound `Cc1c(COc2cccc(N3CCC(OCCC(C)(C)O)CC3)c2)[nH]c2ccccc2c1=O` [Ex 194] came in with a melting point of 160 to 163 °C.

`Cc1c(COc2cccc(N3CCC(O)CC3)c2)[nH]c2ccccc2c1=O` [Ex 198]: in the data set with NADPH oxidase, the “Inh(%) ROS production inhibition rate” value is given as 97.5 ± 6.1%.

Turning to `Cc1c(COc2cccc(N3CCC(C)(O)CC3)c2)[nH]c2ccccc2c1=O` [Ex 199], in the data set on NADPH oxidase, the “Inh(%) ROS production inhibition rate” value was found to be 93.1 ± 1.1%.

Take `Cc1c(COCC(C)(C)COC(=O)N2CCOCC2)[nH]c2ccccc2c1=O` [Ex 204]: the melting point was 155 to 157 °C.

Consider `Cc1c(COCCC2(O)CCCCC2)[nH]c2ccccc2c1=O` [Ex 205], for which the melting point was 125 to 127 °C.

Consider `Cc1c(CCC2CCN(C(=O)C3CC3)CC2)[nH]c2ccccc2c1=O` [Ex 209], for which the melting point was 222 to 224 °C.

Turning to `Cc1c(COC2CCOCC2)[nH]c2ccccc2c1=O` [Ex 212], the melting point lay in the range of 194 to 196 °C.

The compound `Cc1c(COc2ccc3c(c2)CCN(C(=O)CC(C)(C)O)C3)[nH]c2ccccc2c1=O` [Ex 213] had a melting point of 135 to 138 °C.

Consider `CCNC(=O)N[C@H]1CC[C@H](OCc2[nH]c3ccccc3c(=O)c2C)CC1` [Ex 224], for which the melting point is > 270 °C (dec.).

For `Cc1c(COCCN(C(=O)C2CCOCC2)C2CCCCC2)[nH]c2ccccc2c1=O` [Ex 228], the “Inh(%) ROS production inhibition rate” value in the data set with NADPH oxidase is listed as 66.3 ± 2.1%.

Turning to `Cc1c(COc2ncc(C(=O)NC3CCCC3)cn2)[nH]c2ccccc2c1=O` [Ex 230], the melting point is > 231 °C (dec.).

The compound `Cc1c(CCC2CCN(C(=O)CC(C)(C)O)CC2)[nH]c2ccccc2c1=O` [Ex 271] registered a melting point of 203 to 205 °C.

The compound `CCOC(=O)N1CCC(CCc2[nH]c3ccccc3c(=O)c2C)CC1` [Ex 276] showed a melting point of 211 to 213 °C. Further, the “Inh(%) ROS production inhibition rate” value with NADPH oxidase was found to be 118.2 ± 4.0%.

With `CCS(=O)(=O)N1CCC(CCc2[nH]c3ccccc3c(=O)c2C)CC1` [Ex 279], the melting point was 225 to 228 °C. In addition, the “Inh(%) ROS production inhibition rate” value in the data set on NADPH oxidase was 98.9 ± 1.0%.

Turning to `Cc1cccc(CNC(=O)OCc2[nH]c3ccccc3c(=O)c2C)c1` [Ex 283], the melting point was 240 to 243 °C. The “Inh(%) ROS production inhibition rate” value in the data set on NADPH oxidase is 61.6 ± 1.7%.

Consider `Cc1c(COC(=O)Nc2cccc(Cc3ccccc3)c2)[nH]c2ccccc2c1=O` [Ex 285], for which, in the data set on NADPH oxidase, the “Inh(%) ROS production inhibition rate” value came to 67.3 ± 0.1%.

For the compound `Cc1c(COC(=O)NCC2CCCCC2)[nH]c2ccccc2c1=O` [Ex 291], the “Inh(%) ROS production inhibition rate” value with NADPH oxidase is reported as 118.8 ± 0.4%.

Regarding `Cc1c(COc2cccc(OCC3CCOCC3)c2)[nH]c2ccccc2c1=O` [Example 2, 3-methyl-2-{[3-(tetrahydro-2H-pyran-4-ylmethoxy)phenoxy]methyl}quinolin-4(1H)-one], the melting point was in the range of 200 to 202 °C. The “Inh(%) ROS production inhibition rate” value with NADPH oxidase is listed as 91.9 ± 5.2%.

`Cc1c(COc2ccc(CCC3(O)CCCC3)cc2)[nH]c2ccccc2c1=O` [Example 3, 2-({4-[2-(1-hydroxycyclopentyl)ethyl]phenoxy}methyl)-3-methylquinolin-4(1H)-one]: the melting point was in the range of 200 to 202 °C.

`CCOC(=O)N[C@H]1CC[C@H](OCc2[nH]c3ccccc3c(=O)c2C)CC1` [Example 5, ethyl {trans-4-[(3-methyl-4-oxo-1,4-dihydroquinolin-2-yl]methoxy]cyclohexyl}carbamate] came in with a melting point of 268 to 271 °C.

The compound `CCS(=O)(=O)N[C@H]1CC[C@H](OCc2[nH]c3ccccc3c(=O)c2C)CC1` [Example 6, N-{trans-4-[(3-methyl-4-oxo-1,4-dihydroquinolin-2-yl)methoxy]cyclohexyl}ethanesulfonamide] returned a melting point of 245 to 247 °C. Moreover, in the data set with NADPH oxidase, the “Inh(%) ROS production inhibition rate” value stood at 79.9 ± 1.2%.

`Cc1c(CO[C@H]2CC[C@H](N3CCCC3=O)CC2)[nH]c2ccccc2c1=O` [Example 7, 3-methyl-2-({[trans-4-(2-oxopyrrolidin-1-yl)cyclohexyl]oxy}methyl)quinolin-4(1H)-one] showed a melting point of 216 to 217 °C.

In turn, `Cc1c(COc2cccc(N3CCOCC3=O)c2)[nH]c2ccccc2c1=O` [Example 9, 3-methyl-2-{[3-(3-oxomorpholin-4-yl)phenoxy]methyl}quinolin-4(1H)-one] had a melting point of 221 to 223 °C. Besides, the “Inh(%) ROS production inhibition rate” value in the data set on NADPH oxidase is 88.7 ± 1.5%.

`Cc1c(COc2cc(OCCC(C)(C)O)cc(N3CCOCC3)c2)[nH]c2ccccc2c1=O` [Example 10, 2-{[3-(3-hydroxy-3-methylbutoxy)-5-morpholin-4-ylphenoxy]methyl}-3-methylquinolin-4(1H)-one] had a melting point of 189 to 190 °C.

As for `CCCCCCCS(=O)(=O)Cc1[nH]c2ccccc2c(=O)c1C` [Example 19, 2-[(heptylsulfonyl)methyl]-3-methylquinolin-4(1H)-one], the melting point was > 310 °C (dec.). The “Inh(%) ROS production inhibition rate” value with NADPH oxidase came out at 99.1 ± 0.0%.

The values are drawn from US8367702B2, “Quinolone derivative” (Astellas Pharma Inc., priority 2007, dated 2013).
